This assay has as its system Mock-transfected HEK cells. The assay can be described thus: Ca2+ imaging in mock-transfected HEK cells. In kind it is cell-based, human. To be noted: without the three genes, Gα16-i3 alone, Gα16-i3/TAS1R1 without TAS1R3, Gα16-i3/TAS1R3 without TAS1R1. How it is done:
HEK293 cells were cultured at 37°C under a humidified atmosphere containing 5% CO2 in Dulbecco's modified Eagle's medium supplemented with 10% fetal bovine serum. To obtain reproducible Ca^2+ responses, cells were split every 2 days before cells become confluent. Cells were discarded after 2 months of passages and new cells were prepared from frozen-stock. For calcium imaging experiments, cells were seeded onto a 35 mm recording chamber or poly-D-lysine coated 96-well black-wall, clear-bottom recording plates. […] The transfection efficiencies were estimated by visualizing DsRed fluorescence (data not shown) or by immunocytochemistry of TAS1R3, and were typically 50∼55% (Figure S4). […]
Two Ca^2+ imaging systems were used. […] Taste solutions diluted in HBSS were applied sequentially to the cells for 30 s with a peristaltic pump at a flow rate of 1.5 ml/min, and fluorescence images were obtained using a S Fluor ×20/0.75 objective lens (Nikon) via a cooled-CCD camera (C6790, Hamamatsu Photonics) fitted to a TE300 microscope (Nikon). Acquisition and analysis of these fluorescence images used AquaCosmos software (v. 1.3, Hamamatsu Photonics). […] Responses were measured from 30 individual responding cells. […]

These results are taken from publication PMC2725291, “Genetic and Molecular Basis of Individual Differences in Human Umami Taste Perception” (PLoS ONE, 2009).

Regarding `N[C@@H](CCC(=O)O)C(=O)[O-].[Na+]` [MSG, monosodium glutamate], the “Ca2+ response of mock-transfected HEK cells” value is reported as “did not respond”.
